Experimental findings from publication PMC5580309, “Molecular-scale features that govern the effects of O-glycosylation on a carbohydrate-binding module” (Chemical Science, 2015) are described below.

Bridge positions count the residues as written; N and C are the ends. Square brackets hold non-standard residues; d marks the D form. Peptide text beside a SMILES is read from it. * marks the point of attachment. X5 = O=P(O)(O)OC[C@H]1O[C@H](*)[C@@H](O)[C@@H](O)[C@@H]1O; X3 = CC(=O)N[C@@H]1[C@@H](O)[C@H](O)[C@@H](CO)O[C@@H]1*; X7 = CC(=O)N[C@H]1[C@@H](O)[C@H](O)[C@@H](CO)O[C@@H]1*; αMan = OC[C@H]1O[C@H](*)[C@@H](O)[C@@H](O)[C@@H]1O; hSer = N[C@@H](CCO)C(=O)O

This data set has as its target T1, thermolysin (Bacillus thermoproteolyticus, UniProt P00800).
T1 sequence (P00800 233-548): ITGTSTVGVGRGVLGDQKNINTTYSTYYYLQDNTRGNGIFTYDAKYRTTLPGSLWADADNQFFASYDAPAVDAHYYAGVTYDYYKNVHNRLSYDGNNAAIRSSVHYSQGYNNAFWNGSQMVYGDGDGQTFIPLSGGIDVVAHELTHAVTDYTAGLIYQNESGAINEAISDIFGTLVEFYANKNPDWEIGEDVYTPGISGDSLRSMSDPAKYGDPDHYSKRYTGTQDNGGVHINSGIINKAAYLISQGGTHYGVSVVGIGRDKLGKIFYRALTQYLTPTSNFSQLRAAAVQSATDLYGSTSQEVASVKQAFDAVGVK
As to the kind of experiment: Proteolytic stability: half-life to thermolysin degradation. To be noted: for half-life: thermolysin (isolated protease), thermolysin degradation, mean of three trials ± SD, procedures as described previously (ESI ref 18); for Change in Half-Life to Thermolysin Degradation: glyco-variant minus its corresponding unglycosylated CBM (e.g. 2-1), *** not used in the correlation plot. The format is in vitro ADME. On the procedure: All error bars reported are standard deviations of data achieved from three separate trials.
cellulose that were determined in accordance with our procedures as described previously 18.
The results are presented as mean of three trials ± SD. *Denotes an averaged value of four trials

For orientation: half-life means the time needed for the level to fall by half in the phase considered. Lower therefore signals rapid decline. Regarding `CC[C@H](C)[C@@H]1NC(=O)CNC(=O)CNC(=O)[C@@H](NC(=O)[C@H](CCC(N)=O)NC(=O)CNC(=O)[C@H](Cc2ccc(O)cc2)NC(=O)[C@H](Cc2c[nH]cn2)NC(=O)[C@@H](CO[C@H]2O[C@H](CO)[C@@H](O)[C@H](O)[C@@H]2O)NC(=O)[C@H](CCC(N)=O)NC(=O)[C@@H](N)[C@@H](C)O)CSSC[C@@H]2NC(=O)[C@H]([C@@H](C)O)NC(=O)[C@H]([C@@H](C)O)NC(=O)CNC(=O)[C@H](CO)NC(=O)[C@H](C)NC(=O)[C@H](CSSC[C@@H](C(=O)N[C@@H](CC(C)C)C(=O)O)NC(=O)[C@H](CCC(N)=O)NC(=O)[C@H](CO)NC(=O)[C@H](Cc3ccc(O)cc3)NC(=O)[C@H](Cc3ccc(O)cc3)NC(=O)[C@@H]3CCCN3C(=O)[C@H](CC(N)=O)NC(=O)[C@H](CC(C)C)NC(=O)[C@H](C(C)C)NC(=O)[C@H](CCC(N)=O)NC2=O)NC(=O)[C@H](C(C)C)NC(=O)[C@H]([C@@H](C)O)NC(=O)[C@@H]2CCCN2C(=O)CNC(=O)[C@H](CO)NC(=O)[C@H](Cc2ccc(O)cc2)NC(=O)CNC1=O` [CBM variant 17] (H-TQ[dS](αMan)HYGQCGGIGYSGPTVCASGTTCQVLNPYYSQCL-OH; disulfide 8-25, 19-35), the half-life was 10.2 ± 1.2 min.
As to `CC[C@H](C)[C@@H]1NC(=O)CNC(=O)CNC(=O)[C@@H](NC(=O)[C@H](CCC(N)=O)NC(=O)CNC(=O)[C@H](Cc2ccc(O)cc2)NC(=O)[C@H](Cc2c[nH]cn2)NC(=O)[C@H](CCO)NC(=O)[C@H](CCC(N)=O)NC(=O)[C@@H](N)[C@@H](C)O)CSSC[C@@H]2NC(=O)[C@H]([C@@H](C)O)NC(=O)[C@H]([C@@H](C)O)NC(=O)CNC(=O)[C@H](CO)NC(=O)[C@H](C)NC(=O)[C@H](CSSC[C@@H](C(=O)N[C@@H](CC(C)C)C(=O)O)NC(=O)[C@H](CCC(N)=O)NC(=O)[C@H](CO)NC(=O)[C@H](Cc3ccc(O)cc3)NC(=O)[C@H](Cc3ccc(O)cc3)NC(=O)[C@@H]3CCCN3C(=O)[C@H](CC(N)=O)NC(=O)[C@H](CC(C)C)NC(=O)[C@H](C(C)C)NC(=O)[C@H](CCC(N)=O)NC2=O)NC(=O)[C@H](C(C)C)NC(=O)[C@H]([C@@H](C)O)NC(=O)[C@@H]2CCCN2C(=O)CNC(=O)[C@H](CO)NC(=O)[C@H](Cc2ccc(O)cc2)NC(=O)CNC1=O` [CBM variant 18] (H-TQ[hSer]HYGQCGGIGYSGPTVCASGTTCQVLNPYYSQCL-OH; disulfide 8-25, 19-35), the half-life is 18 ± 0.6 min.
With `CC[C@H](C)[C@@H]1NC(=O)CNC(=O)CNC(=O)[C@@H](NC(=O)[C@H](CCC(N)=O)NC(=O)CNC(=O)[C@H](Cc2ccc(O)cc2)NC(=O)[C@H](Cc2c[nH]cn2)NC(=O)[C@H](CCO[C@H]2O[C@H](CO)[C@@H](O)[C@H](O)[C@@H]2O)NC(=O)[C@H](CCC(N)=O)NC(=O)[C@@H](N)[C@@H](C)O)CSSC[C@@H]2NC(=O)[C@H]([C@@H](C)O)NC(=O)[C@H]([C@@H](C)O)NC(=O)CNC(=O)[C@H](CO)NC(=O)[C@H](C)NC(=O)[C@H](CSSC[C@@H](C(=O)N[C@@H](CC(C)C)C(=O)O)NC(=O)[C@H](CCC(N)=O)NC(=O)[C@H](CO)NC(=O)[C@H](Cc3ccc(O)cc3)NC(=O)[C@H](Cc3ccc(O)cc3)NC(=O)[C@@H]3CCCN3C(=O)[C@H](CC(N)=O)NC(=O)[C@H](CC(C)C)NC(=O)[C@H](C(C)C)NC(=O)[C@H](CCC(N)=O)NC2=O)NC(=O)[C@H](C(C)C)NC(=O)[C@H]([C@@H](C)O)NC(=O)[C@@H]2CCCN2C(=O)CNC(=O)[C@H](CO)NC(=O)[C@H](Cc2ccc(O)cc2)NC(=O)CNC1=O` [CBM variant 19] (H-TQ[hSer](αMan)HYGQCGGIGYSGPTVCASGTTCQVLNPYYSQCL-OH; disulfide 8-25, 19-35), the “Change in Half-Life to Thermolysin Degradation” value (from here on “Change in Half-Life”) came to 2.4 min and the half-life is 20.4 ± 4.2 min.
As for `CC[C@H](C)[C@@H]1NC(=O)CNC(=O)CNC(=O)[C@@H](NC(=O)[C@H](CCC(N)=O)NC(=O)CNC(=O)[C@H](Cc2ccc(O)cc2)NC(=O)[C@H](Cc2c[nH]cn2)NC(=O)[C@H](CO[C@H]2O[C@H](COP(=O)(O)O)[C@@H](O)[C@H](O)[C@@H]2O)NC(=O)[C@H](CCC(N)=O)NC(=O)[C@@H](N)[C@@H](C)O)CSSC[C@@H]2NC(=O)[C@H]([C@@H](C)O)NC(=O)[C@H]([C@@H](C)O)NC(=O)CNC(=O)[C@H](CO)NC(=O)[C@H](C)NC(=O)[C@H](CSSC[C@@H](C(=O)N[C@@H](CC(C)C)C(=O)O)NC(=O)[C@H](CCC(N)=O)NC(=O)[C@H](CO)NC(=O)[C@H](Cc3ccc(O)cc3)NC(=O)[C@H](Cc3ccc(O)cc3)NC(=O)[C@@H]3CCCN3C(=O)[C@H](CC(N)=O)NC(=O)[C@H](CC(C)C)NC(=O)[C@H](C(C)C)NC(=O)[C@H](CCC(N)=O)NC2=O)NC(=O)[C@H](C(C)C)NC(=O)[C@H]([C@@H](C)O)NC(=O)[C@@H]2CCCN2C(=O)CNC(=O)[C@H](CO)NC(=O)[C@H](Cc2ccc(O)cc2)NC(=O)CNC1=O` [CBM variant 20] (H-TQS(X5)HYGQCGGIGYSGPTVCASGTTCQVLNPYYSQCL-OH; disulfide 8-25, 19-35), the “Change in Half-Life” value is 20.4 min and the half-life is 34.2 ± 3.6 min.
As for `CC[C@H](C)[C@@H]1NC(=O)CNC(=O)CNC(=O)[C@@H](NC(=O)[C@H](CCC(N)=O)NC(=O)CNC(=O)[C@H](Cc2ccc(O)cc2)NC(=O)[C@H](Cc2c[nH]cn2)NC(=O)[C@H](CO[C@H]2O[C@H](CO)[C@@H](O)[C@H](O)[C@@H]2NC(C)=O)NC(=O)[C@H](CCC(N)=O)NC(=O)[C@@H](N)[C@@H](C)O)CSSC[C@@H]2NC(=O)[C@H]([C@@H](C)O)NC(=O)[C@H]([C@@H](C)O)NC(=O)CNC(=O)[C@H](CO)NC(=O)[C@H](C)NC(=O)[C@H](CSSC[C@@H](C(=O)N[C@@H](CC(C)C)C(=O)O)NC(=O)[C@H](CCC(N)=O)NC(=O)[C@H](CO)NC(=O)[C@H](Cc3ccc(O)cc3)NC(=O)[C@H](Cc3ccc(O)cc3)NC(=O)[C@@H]3CCCN3C(=O)[C@H](CC(N)=O)NC(=O)[C@H](CC(C)C)NC(=O)[C@H](C(C)C)NC(=O)[C@H](CCC(N)=O)NC2=O)NC(=O)[C@H](C(C)C)NC(=O)[C@H]([C@@H](C)O)NC(=O)[C@@H]2CCCN2C(=O)CNC(=O)[C@H](CO)NC(=O)[C@H](Cc2ccc(O)cc2)NC(=O)CNC1=O` [CBM variant 21] (H-TQS(X7)HYGQCGGIGYSGPTVCASGTTCQVLNPYYSQCL-OH; disulfide 8-25, 19-35), the “Change in Half-Life” value worked out at 27.6 min and the half-life was 41.4 ± 5.4 min.
On to `CC[C@H](C)[C@@H]1NC(=O)CNC(=O)CNC(=O)[C@@H](NC(=O)[C@H](CCC(N)=O)NC(=O)CNC(=O)[C@H](Cc2ccc(O)cc2)NC(=O)[C@H](Cc2c[nH]cn2)NC(=O)[C@H](CO[C@H]2O[C@H](CO)[C@@H](O)[C@H](O)[C@H]2NC(C)=O)NC(=O)[C@H](CCC(N)=O)NC(=O)[C@@H](N)[C@@H](C)O)CSSC[C@@H]2NC(=O)[C@H]([C@@H](C)O)NC(=O)[C@H]([C@@H](C)O)NC(=O)CNC(=O)[C@H](CO)NC(=O)[C@H](C)NC(=O)[C@H](CSSC[C@@H](C(=O)N[C@@H](CC(C)C)C(=O)O)NC(=O)[C@H](CCC(N)=O)NC(=O)[C@H](CO)NC(=O)[C@H](Cc3ccc(O)cc3)NC(=O)[C@H](Cc3ccc(O)cc3)NC(=O)[C@@H]3CCCN3C(=O)[C@H](CC(N)=O)NC(=O)[C@H](CC(C)C)NC(=O)[C@H](C(C)C)NC(=O)[C@H](CCC(N)=O)NC2=O)NC(=O)[C@H](C(C)C)NC(=O)[C@H]([C@@H](C)O)NC(=O)[C@@H]2CCCN2C(=O)CNC(=O)[C@H](CO)NC(=O)[C@H](Cc2ccc(O)cc2)NC(=O)CNC1=O` [CBM variant 22] (H-TQS(X3)HYGQCGGIGYSGPTVCASGTTCQVLNPYYSQCL-OH; disulfide 8-25, 19-35), for which the “Change in Half-Life” value stood at 10.2 min and the half-life was 24 ± 0.6 min.
